Measurements published in publication PMC7436013, “Design, Synthesis, and Biological Investigation of Novel Classes of 3-Carene-Derived Potent Inhibitors of TDP1” (Molecules, 2020).
“Also recorded” adds a separate entry of the source.

Columns and labels:
[1] = target: T1, TDP1 (Homo sapiens, UniProt Q9NUW8); assay: Real-time detection of TDP1 activity with fluorescent oligonucleotide biosensor; type: biochemical; conditions: for IC50: real-time fluorescent oligonucleotide biosensor, 1.5 nM TDP1, 50 nM substrate, read-out: IC50, TDP1 inhibition
T1 construct: made in house; host or cells: Escherichia coli
Procedure: The compounds synthesized starting from (+)-3-carene 8 were tested for their TDP1 inhibitory properties by measuring their IC50 values using a real-time fluorescent oligonucleotide biosensor [38].
A fluorophore quencher-coupled oligonucleotide biosensor was used for TDP1 enzyme activity real-time fluorescence detection. […] Recombinant protein TDP1 was expressed in Escherichia coli (pET 16B plasmid containing TDP1 cDNA was provided by Dr. K.W. Caldecott, University of Sussex, United Kingdom) and isolated as described by Lebedeva et al.. The reaction mixture contained TDP1 reaction buffer (50 mM Tris-HCl, 50 mM NaCl, 7 mM β-mercaptoethanol), 50 nM oligonucleotide substrate, varied concentrations of the tested compounds, and 1.5 nM purified TDP1 in a final volume of 200 μL.
The TDP1 reaction mixture was incubated at rt in a POLARstar OPTIMA fluorimeter (BMG LABTECH, GmbH). Fluorescence intensity was measured every 1 min (Ex485/Em520 nm). The efficiency of TDP1 inhibition was evaluated by comparing the rate of increase in the fluorescence of the biosensor in the presence of the compound to that of DMSO (1.5%) control wells. IC50 values were determined using an 11-point concentration–response curve. The data were imported into MARS Data Analysis 2.0 program (BMG LABTECH) and the slope during the linear phase was calculated. The IC50 measurements were carried out in at least three independent experiments.

[2] = tested on: Krebs-2 carcinoma cells; assay: Colorimetric cytotoxicity test, Krebs-2; type: cell-based
Procedure: The cytotoxicity of the compounds was examined against human cell lines HEK293FT (human embryonic kidney), WT and TDP1-deficient (TDP1-/-), HCT116 (human colon cancer), IMR-32 (human neuroblastoma cell line), HeLa (cervical cancer), and Krebs-2 carcinoma ascites using MTT and EZ4U colorimetric tests or an xCELLigence DP Real-Time Cell Analyzer (ACEA Biosciences, San Diego, CA, USA) for HEK293FT in cells exposed to the compounds. The cells were grown in DMEM/F12 or IMDM (for IMR-32 and Krebs-2) medium (Gibco), with 1x GlutaMAX (Gibco), 50 IU/mL penicillin, 50 μg/mL streptomycin (MP Biomedicals, Irvine, CA, USA) and in the presence of 10% fetal bovine serum (Biolot). The cells (~20,000 cells per well) were incubated for 24 h at 37 °C in 5% CO2, and then treated with the tested compounds (the volume of the added reagents was 1/100 of the total volume of the culture medium, the amount of DMSO was 1% of the final volume as indicated). Control cells were grown in the presence of 1% DMSO where indicated. After 72 h of cell incubation, the relative amount of living cells was determined using a colorimetric test of the amount of formazan converted from 3-(4,5-dimethylthiazol-2-yl)-2,5-diphenyl-2H-tetrazolium bromide (MTT test) or EZ4U Cell Proliferation and Cytotoxicity Assay (Biomedica, Austria), as per the manufacturer’s protocols. […]

[3] = tested on: IMR-32 (human neuroblastoma cell line); assay: Colorimetric cytotoxicity test, IMR-32; type: cell-based
Procedure: (§1) The cytotoxicity of the compounds was examined against human cell lines HEK293FT (human embryonic kidney), WT and TDP1-deficient (TDP1-/-), HCT116 (human colon cancer), IMR-32 (human neuroblastoma cell line), HeLa (cervical cancer), and Krebs-2 carcinoma ascites using MTT and EZ4U colorimetric tests or an xCELLigence DP Real-Time Cell Analyzer (ACEA Biosciences, San Diego, CA, USA) for HEK293FT in cells exposed to the compounds. The cells were grown in DMEM/F12 or IMDM (for IMR-32 and Krebs-2) medium (Gibco), with 1x GlutaMAX (Gibco), 50 IU/mL penicillin, 50 μg/mL streptomycin (MP Biomedicals, Irvine, CA, USA) and in the presence of 10% fetal bovine serum (Biolot). The cells (~20,000 cells per well) were incubated for 24 h at 37 °C in 5% CO2, and then treated with the tested compounds (the volume of the added reagents was 1/100 of the total volume of the culture medium, the amount of DMSO was 1% of the final volume as indicated). Control cells were grown in the presence of 1% DMSO where indicated. After 72 h of cell incubation, the relative amount of living cells was determined using a colorimetric test of the amount of formazan converted from 3-(4,5-dimethylthiazol-2-yl)-2,5-diphenyl-2H-tetrazolium bromide (MTT test) or EZ4U Cell Proliferation and Cytotoxicity Assay (Biomedica, Austria), as per the manufacturer’s protocols. The real-time detection of the living cells was done by an xCELLigence DP Real-Time Cell Analyzer (ACEA Biosciences). The measurements were carried out in three parallel experiments.

[4] = tested on: HEK293FT TDP1−/− cells; assay: Colorimetric cytotoxicity test (MTT/EZ4U), HEK293FT TDP1-/-; type: cell-based, human; conditions: for IC50: Homo sapiens, HEK293FT, 72 h, read-out: Tpc IC50, colorimetric test
Procedure: (§2) We analyzed, using a colorimetric test, the relative amount of viable cells after treating HEK293FT WT and TDP1-deficient (TDP1−/−) cells with increasing concentrations of Tpc for 72 h. […] Next, we studied WT and mutant cells’ live activity after Tpc treatment on the xCELLigence System (ACEA Biosciences, USA) by the impedance-based assay. HEK293FT TDP1−/− cells were more sensitive to Tpc (Figure 2B). After Tpc administration to the cells, an […] of the slope was seen, characterizing the velocity of the cell growth with Tpc as compared to the control both for WT (red columns) and mutant cells (green columns) (Figure S1, Supplementary Materials). […] The sharper decrease of the slope for the mutant cells than for the WT (compare the histogram for the 0 and 0.05 μM Tpc concentration, ~1.5 times for WT cells (red) and ~6 times for TDP1−/−cells (green)) also characterizes the higher sensitivity of the mutant to the TOP1 inhibitor. […] There was a three-fold difference for these IC50 values, which is nearly the same as for the colorimetric assay.
as §1

[5] = tested on: HeLa (cervical carcinoma); assay: Colorimetric cytotoxicity test, HeLa; type: cell-based, human
Procedure: as §1

[6] = tested on: HCT116 (human colon cancer); assay: Colorimetric cytotoxicity test, HCT116; type: cell-based
Procedure: as §1

[7] = tested on: HEK293FT WT cells; assay: Colorimetric cytotoxicity test (MTT/EZ4U), HEK293FT WT; type: cell-based, human; conditions: for IC50: Homo sapiens, HEK293FT, 72 h, read-out: Tpc IC50, colorimetric test
Procedure: as §2, §1

[8] = tested on: HEK293FT TDP1−/− cells; assay: Impedance-based real-time assay (xCELLigence), HEK293FT TDP1-/-; type: cell-based, human
Procedure: as §2, with “colorimetric assay. […]” for “colorimetric assay.”

[9] = tested on: HEK293FT WT cells; assay: Impedance-based real-time assay (xCELLigence), HEK293FT WT; type: cell-based, human
Procedure: as §2, with “colorimetric assay. […]” for “colorimetric assay.”

[10] = tested on: TDP1; set-up: method as in PMID 31619021, PMID 30396105, PMID 30142660, PMID 29562592, PMID 27658793; conditions: Figure 1; ref [10]-[13],[16]-[18],[20],[22]; read-out: IC50 of known TDP1 inhibitors; cited from earlier work
[11] = tested on: human breast adenocarcinoma cell line MCF-7; set-up: method as in PMID 27658793; conditions: ref [16]; cited from earlier work
[12] = tested on: lung adenocarcinoma cells A549; set-up: method as in PMID 30523770, doi:10.3390/app9132767; conditions: ref [18],[20]; cited from earlier work
[13] = Homo sapiens, in H2O, read-out: Tpc IC50, impedance-based assay

T1 sequence (Q9NUW8 whole entry): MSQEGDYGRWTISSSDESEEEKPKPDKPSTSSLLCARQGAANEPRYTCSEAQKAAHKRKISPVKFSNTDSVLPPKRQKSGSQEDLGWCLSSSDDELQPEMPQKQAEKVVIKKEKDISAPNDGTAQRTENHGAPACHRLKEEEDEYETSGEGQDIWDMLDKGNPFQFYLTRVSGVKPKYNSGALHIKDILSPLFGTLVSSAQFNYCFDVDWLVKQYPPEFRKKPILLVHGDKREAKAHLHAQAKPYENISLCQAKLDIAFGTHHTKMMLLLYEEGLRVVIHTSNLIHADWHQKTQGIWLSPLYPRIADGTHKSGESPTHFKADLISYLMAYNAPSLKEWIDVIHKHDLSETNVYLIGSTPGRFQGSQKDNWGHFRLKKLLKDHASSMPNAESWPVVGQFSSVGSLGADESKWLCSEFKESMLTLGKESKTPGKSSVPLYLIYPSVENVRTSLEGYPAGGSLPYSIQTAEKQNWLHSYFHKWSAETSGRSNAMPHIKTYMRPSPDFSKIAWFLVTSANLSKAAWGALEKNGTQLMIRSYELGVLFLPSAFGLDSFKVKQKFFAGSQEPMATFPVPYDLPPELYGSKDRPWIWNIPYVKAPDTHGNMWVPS

Compound `CC1=CC[C@@H]2C[C@H]1[C@H](c1cc(Br)cs1)OC2(C)C` [12g, (1R,4R,5R)-2,2,6-trimethyl-4-(4-bromothiophen-2-yl)-3-oxabicyclo[3.3.1]non-6-ene] has an IC50 [1] of 0.65 ± 0.22 µM.

Compound `CC1=CC[C@@H]2C[C@H]1[C@H](c1ccc(Br)s1)OC2(C)C` [12h, (1R,4R,5R)-2,2,6-trimethyl-4-(5-bromothiophen-2-yl)-3-oxabicyclo[3.3.1]non-6-ene] has an IC50 [1] of 1.75 ± 0.78 µM.

In the case of `CC1=CC[C@@H]2C[C@H]1[C@H](c1ccc([N+](=O)[O-])o1)OC2(C)C` [12j, (1R,4R,5R)-2,2,6-trimethyl-4-(5-nitrofuran-2-yl)-3-oxabicyclo[3.3.1]non-6-ene], the “activity against TDP1 (in words)” value [1] is reported as “did not exhibit high activity” and the IC50 [1] is reported as 28 ± 10 µM.

For `CC1=CC[C@@H]2C[C@H]1[C@H](c1ccsc1)OC2(C)C` [12k, (1R,4R,5R)-2,2,6-trimethyl-4-(thiophen-3-yl)-3-oxabicyclo[3.3.1]non-6-ene], the intrinsic cytotoxicity [2] was “low”, the intrinsic cytotoxicity ([3]; IMR-32) was “low” and the “dose-dependent action of Tpc in the presence of inhibitor” value ([3]; IMR-32, Figure 4C) was “synergistic action”. For the same compound, the “dose-dependent action of inhibitor in the presence of Tpc on cell growth” value ([3]; IMR-32, Tpc 8 nM, Figure 4B) was “suppressed cell growth”, the “effect of TDP1 inhibitor in conjunction with Tpc on cell growth” value ([4]; Tpc 30 nM) was “not found; also recorded: no effect” and the intrinsic cytotoxicity [5] was “low”. The “enhancement of the Tpc cytotoxicity” value ([5]; data not shown) was “no enhancement”, the intrinsic cytotoxicity ([6]; HCT116) was “low” and the “dose-dependent action of inhibitor in the presence of Tpc on cell growth” value ([6]; HCT, Tpc 900 nM, Figure 4B) was “no effect”. For the same compound, the “effect of TDP1 inhibitor in conjunction with Tpc on cell growth” value ([7]; Tpc 200 nM) was “cell growth suppression; also recorded: synergistic effect; also recorded: Suppressed cell growth” and the IC50 [1] was 1.2 ± 0.14 µM.

`CC[C@@]1(O)C(=O)OCc2c1cc1n(c2=O)Cc2cc3c(CN(C)C)c(O)ccc3nc2-1` [Tpc, topotecan, reference compound] gave an IC50 ([3]; Homo sapiens, IMR-32, read-out: Tpc IC50 (concentration close to IC50)) of about 0.008 µM, an IC50 ([4]; in DMSO) of 0.03 µM and an IC50 ([4]; in H2O) of 0.15 µM. For the same compound, the IC50 [8, 13] was 0.02 µM, the “decrease of the slope (velocity of cell growth), 0 vs 0.05 μM Tpc” value ([8]; ~70 h after Tpc treatment) was ~ 6 times and the IC50 ([6]; Homo sapiens, HCT-116, read-out: Tpc IC50 (concentration close to IC50)) was about 0.9 µM. It also gave an IC50 ([7]; in DMSO) of 0.2 µM, an IC50 ([7]; in H2O) of 0.25 µM and an IC50 [9, 13] of 0.06 µM. The “decrease of the slope (velocity of cell growth), 0 vs 0.05 μM Tpc” value ([9]; ~70 h after Tpc treatment) was ~ 1.5 times.

For `CC(=O)C[C@H]1CC2C(CCC3C[C@H](OC(C)=O)CC[C@@]32C)C2CC[C@H]([C@H](C)CCC(=O)NC34CC5CC(CC(C5)C3)C4)[C@]21C` (stereo partly drawn) [compound 2], the IC50 [10] is given as 0.47 µM.

For `C[C@@H]1CC[C@@H]2[C@@H](C1)O[C@@H](c1ccc(NC(=O)C34CC5CC(CC(C5)C3)C4)s1)C[C@]2(C)O` [compound 3], the IC50 [10] is listed as 1.2 µM.

For `CC1(C)C2CC=C(COc3ccc4c5c(c(=O)oc4c3)CCC5)C1C2` (stereo not drawn) [compound 4], the “reduction of the CC50 of camptothecin” value [11] is given as “eight-fold” and the IC50 [10] is given as 0.68 µM.

In the case of `CC(C)CCCC(C)CCOC(=O)C12CC3CC(CC(C3)C1)C2` (stereo not drawn) [compound 6], the “synergism in combination with Tpc” value [12] is given as “strong synergism” and the IC50 [10] is given as 0.92 µM.

In the case of `CC(C)CCCC(C)CCNC(=S)C12CC3CC(CC(C3)C1)C2` (stereo not drawn) [compound 7], the “synergism in combination with Tpc” value [12] is given as “strong synergism” and the IC50 [10] is given as 3.3 µM.
